Results published in patent US11980609B2, “LPA receptor antagonists and uses thereof” (Gilead Sciences, Inc., priority 2021, dated 2024).

Target: T1, human LPAR1 (Homo sapiens, UniProt Q92633)
T1 construct: host or cells: CHO-K1
Test: LPAR1 intracellular calcium mobilization assay (antagonist mode)
Format: cell-based
Details: CHO-K1 EDG2 cells expressing human LPAR1; 60 min pre-incubation with compound (0.5 nM to 10 μM), then LPA 18:2 challenge; FLIPR Tetra calcium signal
Method: In vitro LPAR1 activity was measured in an intracellular calcium mobilization assay.
CHO-K1 EDG2 cells (DiscoverX cat #93-0644C2) expressing human LPAR1 (NM_001401.3) were seeded in a total volume of 25 μL of Dulbecco's Modification of Eagle's Medium (DMEM) with 10% Fetal Bovine Serum, 1× PenStrepGlutamine, 300 μg/ml Hygromycin, and 800 μg/ml G418 into 384-well tissue culture plate (Grenier #781091) at 15,000 cells/well and incubated at 37° C. overnight. Prior to testing, 25 μL Calcium Loading Dye Component A (FLIPR Calcium 6 Assay Kit Molecular Device #R8190) and 2.5 mM Probenecid (Invitrogen #P36400, prepared fresh) in Hank's Balanced Salt Solution (Corning #21-023-CV), 20 mM HEPES (Corning #25-060-CI), 0.1% Bovine Serum Albumin (Sigma-Aldrich #A7906-500G) was add to the cells for 60 minutes at 37° C.
Agonist dose curves of LPA 18:2 (Avanti Polar Lipids cat #857138, 0.5 nM to 10 μM) were recorded to determine the LPA 18:2 EC80 for subsequent antagonist assays. For agonist dose curves, cells were removed from the incubator 2 hours after dye loading and transferred to the FLIPR Tetra instrument (Molecular Devices, San Jose, CA). Calcium mobilization was monitored for 5 min and 10 μL 6×LPA in HBSS/20 mM Hepes/0.1% bovine serum albumin (BSA) was added to the cells 5 seconds into the assay.
To determine the LPAR1 antagonist activity of test compounds, cells were pre-incubated with test compound at a dose range of 0.5 nM to 10 μM, followed by LPA at […] concentration (100 nM). After dye loading, cells were removed from the incubator and 0.3 μL of 200× antagonist was added. Cells were incubated for 60 minutes at 37° C. Antagonist activity was measured on a FLIPR Tetra. Calcium mobilization was monitored for 3.5 minutes and 10 μL 6×EC80 LPA in HBSS, 20 mM HEPES, and 0.1% BSA was added to the cells 5 seconds into the assay. Signal amplitude (Maximum minus minimum) values were plotted against log10 of antagonist concentration using Dose Response Tool (Gilead Sciences Inc.) to determine EC50.
To assess the antagonistic potential of exemplified compounds EC50 values were determined for Compounds 1 to 55 in the LPAR1 calcium mobilization assay. The compound numbers correspond to the compound numbers in Examples 1 to 35. N/A=not available.

T1 sequence (Q92633 whole entry): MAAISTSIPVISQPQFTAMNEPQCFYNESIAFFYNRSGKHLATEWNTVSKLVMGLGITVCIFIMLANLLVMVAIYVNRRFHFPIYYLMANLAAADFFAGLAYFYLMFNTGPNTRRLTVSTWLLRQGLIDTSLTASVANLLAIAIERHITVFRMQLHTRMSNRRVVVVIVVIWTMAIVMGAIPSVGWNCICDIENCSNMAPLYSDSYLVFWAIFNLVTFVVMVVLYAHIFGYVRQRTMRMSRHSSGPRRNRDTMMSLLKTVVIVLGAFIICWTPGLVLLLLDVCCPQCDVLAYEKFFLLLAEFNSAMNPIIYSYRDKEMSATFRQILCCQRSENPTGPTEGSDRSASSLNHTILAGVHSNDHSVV

| SMILES | EC50 [nM] |
| --- | --- |
| C[C@@H](OC(=O)Nc1c(-c2ncc(NC(=O)C3CC(F)(F)C3)cn2)cnn1C)c1cc(F)cnc1F [Compound 36, (R)-1-(2,5-difluoropyridin-3-yl)ethyl (4-(5-(3,3-difluorocyclobutane-1-carboxamido)pyrimidin-2-yl)-1-methyl-1H-pyrazol-5-yl)carbamate] | 18.6 |
| CCS(=O)(=O)Oc1cnc(-c2cnn(C)c2NC(=O)O[C@H](C)c2cc(F)cnc2Cl)nc1 [Compound 5, (R)-2-(5-(((1-(2-chloro-5-fluoropyridin-3-yl)ethoxy)carbonyl)amino)-1-methyl-1H-pyrazol-4-yl)pyrimidin-5-yl ethanesulfonate] | 51.5 |
| C[C@@H](OC(=O)Nc1c(-c2ncc(NC(=O)c3cnc(C(F)F)nc3)cc2F)cnn1C)c1cc(F)cnc1F [Compound 18, (R)-1-(2,5-difluoropyridin-3-yl)ethyl (4-(5-(2-(difluoromethyl)pyrimidine-5-carboxamido)-3-fluoropyridin-2-yl)-1-methyl-1H-pyrazol-5-yl)carbamate] | 36.1 |
| C[C@@H](OC(=O)Nc1c(-c2ncc(C(O)C(F)(F)F)cn2)cnn1C)c1cc(F)cnc1F (stereo partly drawn) [Compound 53, (R)-1-(2,5-difluoropyridin-3-yl)ethyl (1-methyl-4-(5-(2,2,2-trifluoro-1-hydroxyethyl)pyrimidin-2-yl)-1H-pyrazol-5-yl)carbamate] | 745 |
| C[C@@H](OC(=O)Nc1c(-c2ncc(NC(=O)[C@@H]3C[C@H]3C#N)cn2)cnn1C)c1cc(F)cnc1F [Compound 39, (R)-1-(2,5-difluoropyridin-3-yl)ethyl (4-(5-((1R,2R)-2-cyanocyclopropane-1-carboxamido)pyrimidin-2-yl)-1-methyl-1H-pyrazol-5-yl)carbamate] | 66.7 |
| C[C@@H](OC(=O)Nc1c(-c2ncc(NS(C)(=O)=O)cn2)cnn1C)c1ccccc1F [Compound 51, (R)-1-(2-fluorophenyl)ethyl (1-methyl-4-(5-(methylsulfonamido)pyrimidin-2-yl)-1H-pyrazol-5-yl)carbamate] | 36.4 |
| C[C@@H](OC(=O)Nc1c(-c2ncc(OC(F)F)cn2)cnn1C)c1cc(F)cnc1F [Compound 55, (R)-1-(2,5-difluoropyridin-3-yl)ethyl (4-(5-(difluoromethoxy)pyrimidin-2-yl)-1-methyl-1H-pyrazol-5-yl)carbamate] | 1780 |
| C[C@@H](OC(=O)Nc1c(-c2ncc(NC(=O)C34CC(F)(C3)C4)cn2)cnn1C)c1cc(F)cnc1F [Compound 30, (R)-1-(2,5-difluoropyridin-3-yl)ethyl (4-(5-(3-fluorobicyclo[1.1.1]pentane-1-carboxamido)pyrimidin-2-yl)-1-methyl-1H-pyrazol-5-yl)carbamate] | 36.2 |
| C[C@@H](OC(=O)Nc1c(-c2ncc(NC(=O)c3cnc(C(F)(F)F)nc3)cn2)cnn1C)c1cc(F)cnc1F [Compound 22, (R)-1-(2,5-difluoropyridin-3-yl)ethyl (1-methyl-4-(5-(2-(trifluoromethyl)pyrimidine-5-carboxamido)pyrimidin-2-yl)-1H-pyrazol-5-yl)carbamate] | 8.9 |
| C[C@@H](OC(=O)Nc1c(-c2ncc(NC(=O)C3(C(F)F)CC(F)(F)C3)cn2)cnn1C)c1cc(F)cnc1F [Compound 37, (R)-1-(2,5-difluoropyridin-3-yl)ethyl (4-(5-(1-(difluoromethyl)-3,3-difluorocyclobutane-1-carboxamido)pyrimidin-2-yl)-1-methyl-1H-pyrazol-5-yl)carbamate] | 7.9 |
| C[C@@H](OC(=O)Nc1c(-c2ncc(NC(=O)[C@@H]3C[C@H]3C(F)(F)F)cn2)cnn1C)c1cccnc1F [Compound 40, (R)-1-(2-fluoropyridin-3-yl)ethyl (1-methyl-4-(5-((1R,2R)-2-(trifluoromethyl)cyclopropane-1-carboxamido)pyrimidin-2-yl)-1H-pyrazol-5-yl)carbamate] | < 4.6 |
| C[C@@H](OC(=O)Nc1c(-c2ncc(NC(=O)c3ccc(Cl)nc3)cn2)cnn1C)c1cc(F)cnc1F [Compound 26, (R)-1-(2,5-difluoropyridin-3-yl)ethyl (4-(5-(6-chloronicotinamido)pyrimidin-2-yl)-1-methyl-1H-pyrazol-5-yl)carbamate] | 20.6 |

The remaining compounds from weak to strong by EC50, led by results:

| EC50 [nM] | SMILES |
| --- | --- |
| 4180 | COC(=O)Nc1ccc(-c2cnn(C)c2NC(=O)O[C@H](C)c2cccc(F)c2)nc1C [Compound 14, (R)-1-(3-fluorophenyl)ethyl (4-(5-((methoxycarbonyl)amino)-6-methylpyridin-2-yl)-1-methyl-1H-pyrazol-5-yl)carbamate] |
| 1410 | C[C@@H](OC(=O)Nc1c(-c2ncc(OS(=O)(=O)C3CC3)cn2)cnn1C)c1cccnc1F [Compound 7, (R)-2-(5-(((1-(2-fluoropyridin-3-yl)ethoxy)carbonyl)amino)-1-methyl-1H-pyrazol-4-yl)pyrimidin-5-yl cyclopropanesulfonate] |
| 1250 | Cc1nc(-c2cnn(C)c2NC(=O)O[C@H](C)c2cccc(F)c2)ccc1NS(C)(=O)=O [Compound 13, (R)-1-(3-fluorophenyl)ethyl (1-methyl-4-(6-methyl-5-(methylsulfonamido)pyridin-2-yl)-1H-pyrazol-5-yl)carbamate] |
| 869 | C[C@@H](OC(=O)Nc1c(-c2ccc(C(=O)NC34CC(F)(C3)C4)cn2)cnn1C)c1cccnc1Cl [Compound 50] |
| 763 | C[C@@H](OC(=O)Nc1c(-c2ccc(NC(=O)C3(C#N)CC3)cn2)cnn1C)c1cc(F)cnc1F [Compound 19, (R)-1-(2,5-difluoropyridin-3-yl)ethyl (4-(5-(1-cyanocyclopropane-1-carboxamido)pyridin-2-yl)-1-methyl-1H-pyrazol-5-yl)carbamate] |
| 167 | Cc1nc(-c2cnn(C)c2NC(=O)O[C@H](C)c2cccnc2Cl)ncc1O [Compound 4, (R)-1-(2-chloropyridin-3-yl)ethyl (4-(5-hydroxy-4-methylpyrimidin-2-yl)-1-methyl-1H-pyrazol-5-yl)carbamate] |
| 81.5 | C[C@@H](OC(=O)Nc1c(-c2ncc(NC(=O)C3(C#N)CC3)cn2)cnn1C)c1cc(F)cnc1F [Compound 21, (R)-1-(2,5-difluoropyridin-3-yl)ethyl (4-(5-(1-cyanocyclopropane-1-carboxamido)pyrimidin-2-yl)-1-methyl-1H-pyrazol-5-yl)carbamate] |
| 39.6 | Cc1nc(-c2cnn(C)c2NC(=O)O[C@H](C)c2cccnc2Cl)ncc1OS(C)(=O)=O [Compound 3, (R)-2-(5-(((1-(2-chloropyridin-3-yl)ethoxy)carbonyl)amino)-1-methyl-1H-pyrazol-4-yl)-4-methylpyrimidin-5-yl methanesulfonate] |
| 25.7 | C[C@@H](OC(=O)Nc1c(-c2ccc3c(n2)OCC(=O)N3)cnn1C)c1cc(F)cnc1Cl [Compound 15, (R)-1-(2-chloro-5-fluoropyridin-3-yl)ethyl (1-methyl-4-(2-oxo-2,3-dihydro-1H-pyrido[2,3-b][1,4]oxazin-6-yl)-1H-pyrazol-5-yl)carbamate] |
| 22.6 | COC1(C#N)CC(C(=O)Nc2cnc(-c3cnn(C)c3NC(=O)O[C@H](C)c3cc(F)cnc3F)nc2)C1 (stereo partly drawn) [Compound 43, (R)-1-(2,5-difluoropyridin-3-yl)ethyl (4-(5-(3-cyano-3-methoxycyclobutane-1-carboxamido)pyrimidin-2-yl)-1-methyl-1H-pyrazol-5-yl)carbamate] |
| 20.7 | C[C@@H](OC(=O)Nc1c(-c2ncc(NC(=O)C3(C)CC(F)(F)C3)cn2)cnn1C)c1cccnc1F [Compound 41, (R)-1-(2-fluoropyridin-3-yl)ethyl (4-(5-(3,3-difluoro-1-methylcyclobutane-1-carboxamido)pyrimidin-2-yl)-1-methyl-1H-pyrazol-5-yl)carbamate] |
| 15.8 | C[C@@H](OC(=O)Nc1c(-c2ncc(NC(=O)C34CC(F)(C3)C4)cc2F)cnn1C)c1cc(F)cnc1F [Compound 16, (R)-1-(2,5-difluoropyridin-3-yl)ethyl (4-(3-fluoro-5-(3-fluorobicyclo[1.1.1]pentane-1-carboxamido)pyridin-2-yl)-1-methyl-1H-pyrazol-5-yl)carbamate] |
| 11.6 | C[C@@H](OC(=O)Nc1c(-c2ncc(NC(=O)[C@@H]3C[C@H]3C(F)F)cn2)cnn1C)c1cc(F)cnc1F [Compound 34, (R)-1-(2,5-difluoropyridin-3-yl)ethyl (4-(5-((1R,2R)-2-(difluoromethyl)cyclopropane-1-carboxamido)pyrimidin-2-yl)-1-methyl-1H-pyrazol-5-yl)carbamate] |
